Values of other authors as cited in US10029116B2, “Method for the treatment of acne” (DUSA PHARMACEUTICALS, INC., priority 2012, dated 2018).

Key:
protoporphyrin IX = conditions: mouse skin
[1] = test system: protoporphyrin IX in acne lesions

## NCC(=O)CCC(=O)O [ALA, aminolevulinic acid]
Protoporphyrin IX
  time for protoporphyrin levels to return to near pretreatment baseline: about 18 hours
  time to peak protoporphyrin IX concentration: about six
[1]; no occlusive covering
  time by which the ability of light to excite protoporphyrin IX in acne lesions disappeared: ≤ 24 h
[1]; occlusive covering placed over the skin
  persistence of the ability of light to excite protoporphyrin IX in skin having acne lesions: ≤ 24 h
